This is an account of results in ChEMBL document CHEMBL5360625, “Design, Synthesis, and Antitumor Activity Evaluation of 2-Arylmethoxy-4-(2,2'-dihalogen-substituted biphenyl-3-ylmethoxy) Benzylamine Derivatives as Potent PD-1/PD-L1 Inhibitors” (J Med Chem, 2023).

pIC50: −log10 of the molar value. The source made the active and inactive calls. No cut-off for these calls is given here. Where only a bound is given, the exact number is not on record here.

Series [1] addresses Programmed cell death protein 1/Programmed cell death 1 ligand 1 (Homo sapiens, UniProt Q9NZQ7). Put plainly: Inhibition of PD-1/PD-L1 interaction (unknown origin) incubated for 1 hr by HTRF assay. The format is protein-complex assay. For orientation: TR-FRET usually uses a lanthanide donor and a delayed reading to cut background.
Series [2] deals with MC-38. Put plainly: Antitumor activity against mouse MC38 cells expressing human PD-L1 protein assessed as reduction in cell viability measured after 48 hrs by CCK-8 assay. The following applies: MC-38, 48 h. It counts as functional, cell-based.
Series [3] is described as follows: AUC (0 to t) in Sprague-Dawley rat at 8 mg/kg, iv measured upto 48 hrs by LC-MS/MS analysis. On the set-up: dose 8 mg/kg, time < 48 hrs, route iv. The following applies: in vivo. The format is ADME, organism-based.
Series [4] is described as follows: AUC (0 to t) in Sprague-Dawley rat at 10 mg/kg, ip measured upto 48 hrs by LC-MS/MS analysis. It counts as ADME, organism-based. On the set-up: time < 48 hrs, dose 10 mg/kg, route ip. The following applies: in vivo.
Series [5] in a line: AUC (0 to infinity) in Sprague-Dawley rat at 8 mg/kg, iv measured upto 48 hrs by LC-MS/MS analysis. The format is ADME, organism-based. On the set-up: time < 48 hrs, dose 8 mg/kg, route iv. To be noted: in vivo.
The nature of series [6]: Cmax in Sprague-Dawley rat at 40 mg/kg, IG measured upto 48 hrs by LC-MS/MS analysis. The following applies: in vivo, po. On the set-up: dose 40 mg/kg, time < 48 hrs, route ig. It counts as ADME, organism-based.
Series [7] can be described thus: Cmax in Sprague-Dawley rat at 10 mg/kg, ip measured upto 48 hrs by LC-MS/MS analysis. It counts as ADME, organism-based. On the set-up: time < 48 hrs, dose 10 mg/kg, route ip. To be noted: in vivo.
Series [8] can be described thus: Half life in Sprague-Dawley rat at 40 mg/kg, IG measured upto 48 hrs by LC-MS/MS analysis. The format is ADME, organism-based. To be noted: Sprague-Dawley, in vivo, po.
Series [9] in a line: Apparent volume of distribution in Sprague-Dawley rat at 40 mg/kg, IG measured upto 48 hrs by LC-MS/MS analysis. The format is ADME, organism-based. To be noted: in vivo, po.
A short description of series [10]: Apparent volume of distribution in Sprague-Dawley rat at 10 mg/kg, ip measured upto 48 hrs by LC-MS/MS analysis. The format is ADME, organism-based. To be noted: in vivo.
Series [11] is described as follows: Clearance in Sprague-Dawley rat at 40 mg/kg, IG measured upto 48 hrs by LC-MS/MS analysis. It counts as ADME, organism-based. To be noted: Sprague-Dawley, in vivo, po.
A short description of series [12]: Bioavailability in Sprague-Dawley rat at 40 mg/kg, IG measured upto 48 hrs by LC-MS/MS analysis. The format is ADME, organism-based. The following applies: in vivo, po.
In series [13] the test system is MC-38. Put plainly: Immunomodulatory activity in mouse MC38 cells implanted in PD-1/PD-L1 humanized C57/BL6 mouse assessed as increase in CXCR3 mRNA expression level in tumor at 50 mg/kg, IG qd administered on day 5 measured after 2 weeks by RT-PCR analysis. The format is functional, organism-based.
Series [14] concerns MC-38. Put plainly: Antitumor activity against mouse MC38 cells implanted in PD-1/PD-L1 humanized C57/BL6 mouse assessed as increase in granzyme B level at 50 mg/kg, IG qd administered on day 5 measured after 2 weeks by microscopic analysis. The format is functional, organism-based.
A short description of series [15]: Toxicity in PD-1/PD-L1 humanized C57/BL6 mouse implanted with mouse MC38 cells assessed as morphological change in liver at 50 mg/kg, IG qd administered on day 5 measured after 2 weeks by hematoxylin-eosin staining based inverted fluorescent microscopic analysis. It counts as organism-based, MC-38. To be noted: in vivo, po, 336 h.
A short description of series [16]: Hepatotoxicity in PD-1/PD-L1 humanized C57/BL6 mouse implanted with mouse MC38 cells assessed as effect on ALT level in serum at 50 mg/kg, IG qd administered on day 5 measured after 2 weeks. The format is toxicity, organism-based, MC-38. The following applies: in vivo, po, 336 h.
A short description of series [17]: Hepatotoxicity in PD-1/PD-L1 humanized C57/BL6 mouse implanted with mouse MC38 cells assessed as effect on AST level in serum at 50 mg/kg, IG qd administered on day 5 measured after 2 weeks. The following applies: in vivo, po, 336 h. It counts as toxicity, organism-based, MC-38.
Series [18] can be described thus: Hepatotoxicity in PD-1/PD-L1 humanized C57/BL6 mouse implanted with mouse MC38 cells assessed as effect on total protein level in serum at 50 mg/kg, IG qd administered on day 5 measured after 2 weeks. The format is toxicity, organism-based, MC-38. The following applies: in vivo, po, 336 h.
Series [19] deals with MC-38. Put plainly: Antitumor activity against mouse MC38 cells implanted in PD-1/PD-L1 humanized C57/BL6 mouse assessed as increase in CD8 positive CD4 positive ratio in tumor at 50 mg/kg, IG qd administered on day 5 measured after 2 weeks by flow cytometry analysis. It counts as functional, organism-based.

Programmed cell death protein 1/Programmed cell death 1 ligand 1, sequence (Q15116 whole entry): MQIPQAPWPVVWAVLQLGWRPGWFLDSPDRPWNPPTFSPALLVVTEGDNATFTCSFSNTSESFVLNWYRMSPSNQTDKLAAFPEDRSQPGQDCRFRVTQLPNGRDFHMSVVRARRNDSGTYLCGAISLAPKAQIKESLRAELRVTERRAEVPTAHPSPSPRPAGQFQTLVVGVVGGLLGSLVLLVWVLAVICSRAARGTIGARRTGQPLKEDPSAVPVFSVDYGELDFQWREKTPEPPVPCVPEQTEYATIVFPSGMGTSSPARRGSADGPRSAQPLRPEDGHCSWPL
Programmed cell death protein 1/Programmed cell death 1 ligand 1, sequence (Q9NZQ7 whole entry): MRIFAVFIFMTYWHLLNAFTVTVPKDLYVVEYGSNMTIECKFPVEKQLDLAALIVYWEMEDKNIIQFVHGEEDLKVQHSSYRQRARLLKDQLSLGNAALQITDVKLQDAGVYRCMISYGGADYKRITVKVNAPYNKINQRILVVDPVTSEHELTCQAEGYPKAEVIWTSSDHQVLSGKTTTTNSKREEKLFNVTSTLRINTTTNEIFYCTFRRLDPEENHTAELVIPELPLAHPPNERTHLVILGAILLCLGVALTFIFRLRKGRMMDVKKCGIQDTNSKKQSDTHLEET

As usually defined, the pIC50 is the negative decadic logarithm of the IC50, by convention in mol/L. Broadly, the AUC(0-t) is the area under the concentration-time curve up to a stated or last time point. Low values mean less exposure, high ones more exposure. As a reminder, the AUC(0-inf) is total exposure, with the tail of the curve extrapolated. Higher therefore signals more exposure. By Cmax is commonly meant the maximum level reached in the sampled fluid or tissue. What is called half-life is how long it takes for the measured level to halve. What is called CL/F is clearance divided by bioavailability, as obtained after extravascular dosing. Regarding `N#Cc1cncc(COc2cc(OCc3cccc(-c4ccccc4F)c3Cl)ccc2CNCCO)c1`, the negative-log IC50 (pIC50) in series [1] is 4.62; in series [2], < 5.10. The figures for the exposure AUC(0-t) at 48 h in series [3] and in [4] were 11500 ng·h/mL and 9730 ng·h/mL, respectively. This compound yielded an AUC(0-inf) in [5] of 13400 ng·h/mL. In addition, the results for the peak concentration (Cmax) in series [6] and in series [7] were 21500 ng/mL and 4160 ng/mL, respectively. Also, the half-life in series [8] is 1.72 h. Besides, the figures for the Vz in [9] and in [10] were 1.8 L/kg and 2.94 L/kg, respectively. For the same compound, the CL/F in series [11] was 10.3 mL/min/kg. In series [12], the bioavailability worked out at 114%. The result in [13], in series [14] and in [19] was Active. Besides, the Activity result in series [15], in [16], in series [17] and in [18] was “Non-Toxic” in each case.
